Experimental data: patent US9487477B2, “Crystalline phase of (3S,3S′) 4,4′-disulfanediylbis(3-aminobutane 1-sulfonic acid) with L-lysine” (Quantum Genomics, priority 2012, dated 2016)

Columns and labels:
[1] = Differential scanning calorimetry (thermal stability); format: physicochemical; details: DSC from −20° C. up to 180° C., heating rate 5K/min
Procedure: FIG. 3: DSC pattern of ABSD.(L-lysine)2. Said experiment was performed from −20° C. up to 180° C., heating rate=5K/min.
The phase isolated, so called “ABSD L-lysinate”, was analyzed by DSC (FIG. 3). […] Said results further confirm that the crystalline form is anhydrous.

[2] = Karl Fischer titration (water content); format: physicochemical
Text: A Karl Fischer titration is a classical titration method to determine the trace amounts of water in a sample. A Karl Fischer titration has confirmed the DSC analysis, by determining a water content of 0.06% inside the sample (i.e. very small amount of adsorbed water).

[3] = Solubility in water and other solvents; format: physicochemical
Hygroscopicity = format: physicochemical
[4] = cited from earlier work
[5] = TGA-DSC analysis coupled to mass spectrometry (thermal behavior, loss of water); format: physicochemical; details: TGA-DSC from 30° C., heating rate 5K/Min
Procedure: A TGA-DSC analysis (coupled to mass spectrometry) was performed on this salt in order to observe its thermal behavior, and to determine its water content.
A TGA-DSC analysis (coupled to mass spectroscopy) was performed on this phase (FIG. 8).
A TGA-DSC analysis coupled to a Mass Spectroscopy (MS) was performed on this phase (FIG. 10).

In the case of `NCCCC[C@H](N)C(=O)O.NCCCC[C@H](N)C(=O)O.N[C@@H](CCS(=O)(=O)O)CSSC[C@@H](N)CCS(=O)(=O)O` [ABSD L-lysinate], the “thermal stability: no thermal phenomenon up to” value [1] is reported as “up to 180 °C”, the water content [2] is reported as 0.06% and the “aqueous solubility compared to the ABSD trihydrate” value [3] is reported as “higher”. The “aqueous solubility compared to the ABSD zwitterionic form” value ([3]; room temperature) was “higher” and the “hygroscopy compared to the ABSD zwitterionic form” value (Hygroscopicity) was “lower”.
In the case of `N[C@H](CCS(=O)(=O)O)CSSC[C@H](N)CCS(=O)(=O)O` [ABSD zwitterion, (3S,3S′) 4,4′-disulfanediylbis(3-aminobutane 1-sulfonic acid)], the “time for the mixture of hydrated forms to evolve toward the trihydrate phase” value ([4]; stored at circa 20° C. and RH>50%, WO 2012/045849) is given as “less than two days”.
For `N[C@@H](CCS(=O)(=O)[O-])CSSC[C@@H](N)CCS(=O)(=O)O.[Na+]` [sodium hydrogen salt of ABSD], the “temperature of loss of water” value [5] was “circa 35 °C”.
In the case of `N[C@H](CCS(=O)(=O)O)CSSC[C@H](N)CCS(=O)(=O)O` [trihydrate phase], the “temperature at which dehydration toward the dihydrate form starts” value ([4]; as described in WO 2012/045849) is listed as “below 30 °C”.
For `NCCCCC(N)C(=O)O` (racemic) [DL-lysine, reference compound], the hygroscopicity (Hygroscopicity) was “high hygroscopicity up to deliquescence”.
